{
  "source": "paper PMC10303036",
  "about": "(Journal of medicinal chemistry, 2022)",
  "key": {"[1]": {"details": "literature antibacterial activity, strain not stated; cited from earlier work"}, "E. coli ACC": {"target": "E. coli ACC (Escherichia coli, UniProt P0A9Q5+P0ABD5+P24182)", "sequence (P0ABD5 whole entry)": "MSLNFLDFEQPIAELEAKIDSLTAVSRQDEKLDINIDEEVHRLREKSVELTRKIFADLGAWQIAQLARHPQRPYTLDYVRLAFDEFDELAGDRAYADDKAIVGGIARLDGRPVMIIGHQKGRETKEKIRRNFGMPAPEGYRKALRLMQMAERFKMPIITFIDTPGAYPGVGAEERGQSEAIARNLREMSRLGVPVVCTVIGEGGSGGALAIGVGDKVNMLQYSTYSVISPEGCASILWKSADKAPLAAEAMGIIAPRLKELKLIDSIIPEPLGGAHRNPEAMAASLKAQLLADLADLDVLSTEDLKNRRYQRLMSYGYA", "sequence (P0A9Q5 whole entry)": "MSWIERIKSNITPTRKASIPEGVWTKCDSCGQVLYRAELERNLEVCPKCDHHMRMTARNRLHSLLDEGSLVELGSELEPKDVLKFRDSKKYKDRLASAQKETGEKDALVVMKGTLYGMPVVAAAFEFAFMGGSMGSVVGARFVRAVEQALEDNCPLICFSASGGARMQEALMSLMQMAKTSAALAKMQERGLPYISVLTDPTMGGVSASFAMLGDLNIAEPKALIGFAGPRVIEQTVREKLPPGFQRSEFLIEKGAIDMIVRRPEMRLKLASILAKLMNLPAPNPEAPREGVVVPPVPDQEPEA", "experiment": "ACC activity fluorescence polarization assay", "format": "biochemical", "details": "for IC50: IC50, fluorescence polarization assay, triplicate, ± SD; for Ki: Ki (apparent, Morrison equation), tight binding inhibitors (IC50 < 0.5 nM), fluorescence polarization assay"}, "E. coli ΔtolC": {"test_system": "E. coli ΔtolC", "format": "cell-based"}, "ACC complex": {"target": "ACC complex (Escherichia coli, UniProt P0A9Q5+P0ABD5+P24182)", "sequence (P0A9Q5 whole entry)": "as above", "sequence (P0ABD5 whole entry)": "as the sequence (P0ABD5 whole entry) above", "experiment": "Spin-column LC-MS/MS competition assay", "format": "binding, E. coli", "details": "for dissociation from ACC with 1 and 3 together: 50 μM of 1 and 3 together added to ACC-inhibitor complex; for dissociation from ACC with 1 alone: 100 μM of 1 alone added to ACC-inhibitor complex"}},
  "note": "“Also recorded” adds a separate entry of the source. Where two headings read alike, the source gives them in different places.",
  "data": [
    {"compound": "Nc1ncc(C(=O)N(Cc2ccccc2)Cc2ccccc2)o1", "note": "[Compound 2]", "values": [
      {"measurement": "MIC", "setting": "[1]", "result": "> 64", "unit": "µg/mL"}
    ]},
    {"compound": "C/C=C/C=C/C(=O)N[C@@H](CC(=O)N[C@H](C(=O)[C@@H]1C(=O)NC(=O)[C@H]1C)C(C)C)c1ccccc1", "note": "[Compound 3, moiramide B, reference compound]", "values": [
      {"measurement": "IC50", "setting": "E. coli ACC", "result": 5, "unit": "nM"}
    ]},
    {"compound": "C#CCCCCOCCOCCOCCOCCOCCOCCOc1cc(Br)c(-c2cc3cnc(N)nc3nc2N)c(Br)c1", "note": "[Compound 9c-p, 6-(2,6-dibromo-4-(3,6,9,12,15,18-hexaoxatetracos-23-yn-1-yloxy)phenyl)pyrido[2,3-d]pyrimidine-2,7-diamine]", "values": [
      {"measurement": "IC50", "setting": "E. coli ACC", "result": "> 500", "unit": "nM"}
    ]},
    {"compound": "C#CCCCCOCCOCCOCCOCCOCCOCCOCCOCCOCCOCCOCCOCCOc1ccc(Br)c(-c2cc3cnc(N)nc3nc2N)c1Br", "note": "[Compound 9e, 6-(2,6-dibromo-3-(3,6,9,12,15,18,21,24,27,30,33,36-dodecaoxadotetracont-41-yn-1-yloxy)phenyl)pyrido[2,3-d]pyrimidine-2,7-diamine]", "values": [
      {"measurement": "MIC ΔtolC + PMBN", "setting": "E. coli ΔtolC; PMBN 6 μM (8 μg/mL)", "result": 12.5, "unit": "µM"}
    ]},
    {"compound": "CC(C)[C@H](NC(=O)C[C@H](NC(=O)CCCCCCCCCCn1cc(CCCCOc2ccc(Br)c(-c3cc4cnc(N)nc4nc3N)c2Br)nn1)c1ccccc1)C(=O)[C@@H]1C(=O)NC(=O)[C@H]1C", "note": "[Compound 15, 11-(4-(4-(2,4-dibromo-3-(2,7-diaminopyrido[2,3-d]pyrimidin-6-yl)phenoxy)butyl)-1H-1,2,3-triazol-1-yl)-N-((1S)-3-(((2S)-3-methyl-1-((3R,4S)-4-methyl-2,5-dioxopyrrolidin-3-yl)-1-oxobutan-2-yl)amino)-3-oxo-1-phenylpropyl)undecanamide]", "values": [
      {"measurement": "dissociation from ACC with 1 and 3 together", "setting": "ACC complex", "result": "rapid dissociation"},
      {"measurement": "dissociation from ACC with 1 alone", "setting": "ACC complex", "result": "little or no dissociation"}
    ]},
    {"compound": "CC(C)[C@H](NC(=O)C[C@H](NC(=O)CCCCCCCCCCn1cc(CCCCOCCOCCOCCOc2ccc(Br)c(-c3cc4cnc(N)nc4nc3N)c2Br)nn1)c1ccccc1)C(=O)[C@@H]1C(=O)NC(=O)[C@H]1C", "note": "[Compound 16, 11-(4-(4-(2-(2-(2-(2,4-dibromo-3-(2,7-diaminopyrido[2,3-d]pyrimidin-6-yl)phenoxy)ethoxy)ethoxy)ethoxy)butyl)-1H-1,2,3-triazol-1-yl)-N-((1S)-3-(((2S)-3-methyl-1-((3R,4S)-4-methyl-2,5-dioxopyrrolidin-3-yl)-1-oxobutan-2-yl)amino)-3-oxo-1-phenylpropyl)undecanamide]", "values": [
      {"measurement": "dissociation from ACC with 1 and 3 together", "setting": "ACC complex", "result": "rapid dissociation"},
      {"measurement": "dissociation from ACC with 1 alone", "setting": "ACC complex", "result": "little or no dissociation"}
    ]},
    {"compound": "CC(C)[C@H](NC(=O)C[C@H](NC(=O)CCCCCCCCCCn1cc(CCCCOCCOCCOCCOCCOCCOCCOc2ccc(Br)c(-c3cc4cnc(N)nc4nc3N)c2Br)nn1)c1ccccc1)C(=O)[C@@H]1C(=O)NC(=O)[C@H]1C", "note": "[Compound 17, 11-(4-(22-(2,4-dibromo-3-(2,7-diaminopyrido[2,3-d]pyrimidin-6-yl)phenoxy)-5,8,11,14,17,20-hexaoxadocos-1-yl)-1H-1,2,3-triazol-1-yl)-N-((1S)-3-(((2S)-3-methyl-1-((3R,4S)-4-methyl-2,5-dioxopyrrolidin-3-yl)-1-oxobutan-2-yl)amino)-3-oxo-1-phenylpropyl)undecanamide]", "values": [
      {"measurement": "dissociation from ACC with 1 and 3 together", "setting": "ACC complex", "result": "rapid dissociation"},
      {"measurement": "dissociation from ACC with 1 or 3 alone", "setting": "ACC complex; 100 μM (100-fold excess) of 1 or 3 alone added to ACC-inhibitor complex", "result": "unable to displace; also recorded: No dissociation"},
      {"measurement": "Ki", "setting": "E. coli ACC", "result": 0.2, "unit": "nM"},
      {"measurement": "MIC ΔtolC + PMBN", "setting": "E. coli ΔtolC; PMBN included", "result": 0.5, "unit": "µg/mL"},
      {"measurement": "MIC ΔtolC", "setting": "E. coli ΔtolC; without PMBN", "result": 4, "unit": "µg/mL"}
    ]},
    {"compound": "CC(C)[C@H](NC(=O)C[C@H](NC(=O)CCCCCCCCCCn1cc(CCCCOCCOCCOCCOCCOCCOCCOc2cc(Br)c(-c3cc4cnc(N)nc4nc3N)c(Br)c2)nn1)c1ccccc1)C(=O)[C@@H]1C(=O)NC(=O)[C@H]1C", "note": "[Compound 17-p, 11-(4-(22-(3,5-dibromo-4-(2,7-diaminopyrido[2,3-d]pyrimidin-6-yl)phenoxy)-5,8,11,14,17,20-hexaoxadocos-1-yl)-1H-1,2,3-triazol-1-yl)-N-((1S)-3-(((2S)-3-methyl-1-((3R,4S)-4-methyl-2,5-dioxopyrrolidin-3-yl)-1-oxobutan-2-yl)amino)-3-oxo-1-phenylpropyl)undecanamide]", "values": [
      {"measurement": "Ki", "setting": "E. coli ACC", "result": 3.53, "unit": "nM"}
    ]}
  ]
}
